Earlier results, collected in US20160318862A1, “SYNTHESIS OF DELTA 12-PGJ3 AND RELATED COMPOUNDS” (WILLIAM MARSH RICE UNIVERSITY, priority 2013, published 2016).
Like-named read-outs stand apart in the source and are kept apart here.

How the values were obtained:
[1] = test system: tumor cells; conditions: incorporating into tumor cells and transferring into nuclei
[2] = test system: gadd45 promoter
[3] = test system: topoisomerase
[4] = biological target: T1, peroxisome proliferator-activated receptor γ (PPARγ) (Homo sapiens, UniProt P37231)
T1 sequence (P37231 1-505): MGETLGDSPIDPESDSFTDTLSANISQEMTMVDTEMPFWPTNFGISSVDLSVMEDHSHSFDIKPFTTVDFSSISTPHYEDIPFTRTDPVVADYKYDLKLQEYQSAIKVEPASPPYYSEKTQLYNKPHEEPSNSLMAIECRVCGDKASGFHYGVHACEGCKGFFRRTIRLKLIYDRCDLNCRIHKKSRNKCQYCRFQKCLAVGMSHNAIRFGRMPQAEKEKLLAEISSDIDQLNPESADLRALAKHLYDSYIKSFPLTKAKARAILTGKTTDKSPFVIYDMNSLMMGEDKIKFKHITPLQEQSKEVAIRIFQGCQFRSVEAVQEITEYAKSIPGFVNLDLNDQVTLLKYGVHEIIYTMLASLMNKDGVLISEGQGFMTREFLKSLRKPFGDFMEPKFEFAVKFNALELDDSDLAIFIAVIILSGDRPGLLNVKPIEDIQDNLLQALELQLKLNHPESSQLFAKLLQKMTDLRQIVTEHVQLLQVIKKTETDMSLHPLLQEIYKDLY

[5] = test system: mice infected with Friend erythroleukemia virus or those expressing chronic myelogenous leukemia (CML) oncoprotein BCR-abl in the hematopoietic stem cell (HSC) …
[6] = test system: leukemia stem cells (LSCs)
[7] = test system: AML LSCs; conditions: murine models of AML; reported in U.S. Patent Publication 2013/0005737
[8] = test system: AML LSCs; conditions: human AML leukemia samples; reported in U.S. Patent Publication 2013/0005737
[9] = test system: p53; conditions: LSCs and leukemia cells
[10] = test system: normal hematopoietic stem cells
[11] = test system: NF-κB-mediated transcription

## CCCCC[C@H](O)C/C=C1/C(=O)C=C[C@@H]1C/C=C\CCCC(=O)O [Δ^12-PGJ2]
[1]
  antitumor effects: strong antitumor effects
[2]
  gadd45 promoter activity: activating the gadd45 promoter independently of p53
[3]
  topoisomerase activity: inhibiting topoisomerase

## CCCCC/C=C/C=C1/C(=O)C=C[C@@H]1C/C=C\CCCC(=O)O [15-deoxy-Δ^12,14-PGJ2]
[4]
  ligand potency for PPARγ: most potent natural ligand reported to date

## CC/C=C\C[C@H](O)C/C=C1/C(=O)C=C[C@@H]1C/C=C\CCCC(=O)O [Δ^12-PGJ3]
[5]; intraperitoneal administration
  hematological parameters, splenic histology and survival: completely restored normal hematological parameters, splenic histology, and enhanced the survival
[5]; two murine models of leukemia
  development of leukemia: alleviates the development of leukemia
[6]; in vivo, donor cells from treated mice unable to cause leukemia in secondary transplants
  eradication of LSCs: completely eradicated LSCs in vivo
[6]; mice spleen and bone marrow
  apoptosis of leukemia stem cells: selectively targets and induces apoptosis of leukemia stem cells
[7]
  targeting of AML LSCs by inducing apoptosis: effectively target AML LSCs by inducing apoptosis
[8]
  targeting of AML LSCs by inducing apoptosis: effectively target AML LSCs by inducing apoptosis
[9]
  expression of p53: inducing the expression of p53

## CC/C=C\C[C@H](O)/C=C/[C@H]1C(=O)C=C[C@@H]1C/C=C\CCCC(=O)O [PGJ3]
[10]
  effect on normal hematopoietic stem cells or the differentiation of hematopoietic progenitors: no effect

## O=C(O)CCCC=CCC1C=CC(=O)C1=CCC(O)CC=CCC(F)(F)F (stereo not shown) [compound 3, ω-Trifluoromethyl-Δ^12-PGJ3]
[11]
  NF-κB-mediated transcription: Inhibition of the NF-κB-mediated transcription
